Measured values reported in publication PMC12285270, “An antibiotic-free antimicrobial combination of bacteriocins and a peptidoglycan hydrolase: in vitro and in vivo assessment of its efficacy” (Applied and Environmental Microbiology, 2025).
Ends that are not written are not given here.

What was measured:
[1] = system: S. aureus Xen31; conditions: formulation: 0.1 mg/mL MP1, 5 mg/mL garvicin KS, 5 mg/mL penicillin G in 5% hydropropylcellulose; cited from earlier work
Text: (§1) The antimicrobial combinations of MP1, Nis, and AuresinePlus were additionally shown to be effective at eradicating S. aureus biofilms (Fig. 3B and C). This led us to assess the antimicrobial efficacy of the combination in vivo using a murine skin infection model. For infected mice treated with the combination, a reduction in the bioluminescence signal was observed throughout the experiment, except for two mice where a relapse of the infection occurred (see Discussion below, Fig. 4C).

[2] = system: HepG2 and THP-1 cell lines; conditions: cited from earlier work
Text: (§2) Encouraged by the efficacy of the MP1/Nis/Aur combination in inhibiting S. aureus in the wound, we sought to examine the potential of the antimicrobial combination in treating mastitis, an infection often caused by S. aureus.

[3] = system: S. aureus Xen31 isolates Mut1 and Mut2; test: Spot-on-lawn assay on isolates recovered from wounds; assay type: cell-based; conditions: for zone of inhibition compared to wild-type strain Xen31: both isolates Mut1 and Mut2, 2 µl of 1 mg/ml nisin A, 0.1 mg/ml MP1 and/or 0.1 mg/ml AuresinePlus spotted
Experimental: Figure S9. Susceptibility of Xen31 mutants recovered from wounded mice. Spot-on-lawn assay using MP1 (M), Nis (N), Aur (A) or the tricomponent combination (MNA) comparing Xen31 WT with two resistant isolates recovered at day 7 PI from the back of wounded mice. Two µl of 1 mg/ml nisin A, 0.1 mg/ml MP1 and/or 0.1 mg/ml AuresinePlus were spotted.

[4] = system: normal human epidermal keratinocytes; conditions: cited from earlier work
Text: as §2

[5] = system: S. aureus Xen36; conditions: cited from earlier work
Text: as §1

[6] = system: HT29 and Caco-2 cell lines; conditions: in vitro; cited from earlier work
Text: as §2

[7] = system: S. aureus; conditions: in vitro; cited from earlier work
Text: As individual components, these antimicrobials probably have limited efficacy against S. aureus in wounds. AuresinePlus is an engineered PGH consisting of the catalytic domain of the S. aureus autolysin LytM and the SH3b cell wall-binding domain lysostaph ...

| Substance | negative effects on the mice [1] | concentration above which growth is impaired [2] | sensitivity of isolate Mut2 ([3]; Mut2, 2 µl of 0.1 mg/ml MP1 spotted) | zone of inhibition compared to wild-type strain Xen31 [3] | IC50 (midpoint cytotoxicity value) [4] [mg/mL] | effect on wound healing [5] | reduction in bacterial counts ([5]; skin wounds, nisin concentration comparable to this study) [log] | IC50 (cytotoxicity) [6] [mg/mL] | frequency of spontaneous mutations conferring high levels of nisin tolerance [7] |
| --- | --- | --- | --- | --- | --- | --- | --- | --- | --- |
| micrococcin P1 [MP1] | no obvious negative effects on the mice | above 0.03 mg/mL | insensitive | particularly reduced | – | – | – | – | – |
| Lysostaphin: large (>10 kDa) heat-labile bacteriolysin from S. simulans | – | – | – | – | 16 | – | – | – | – |
| nisin A (ITSISLCTPGCKTGALMGCNMKTATCHCSIHVSK; also: lantibiotic (lanthionine rings, dehydro residues) not placed; UniProt P13068 24-57, looked up) [lantibiotic bacteriocin; commercial fermentate from Sigma-Aldrich (N5764; 2.5% wt/wt nisin)] | – | – | – | particularly reduced | – | no negative effects on wound healing | 2 | 0.3 to 0.4 | 2 × 10^−7 |
